Source: US12360106B2, “Photochromic xanthene fluorophores and their utility in live-cell imaging beyond the diffraction limit” (HOWARD HUGHES MEDICAL INSTITUTE, priority 2017, dated 2025)

Experiment: water solubility (comparative statement)
Type: physicochemical
Settings: compared to PC-JF549-NHS

With `COCCOCCOCCOCCNC(=O)c1cc2ccc(N3C(=O)c4ccc(C(=O)ON5C(=O)CCC5=O)cc4C34c3ccc(N5CCC5)cc3[Si](C)(C)c3cc(N5CCC5)ccc34)cc2oc1=O` [PC-JF646-PEG-NHS, 2,5-dioxopyrrolidin-1-yl 2′-(3-((2,5,8,11-tetraoxatridecan-13-yl)carbamoyl)-2-oxo-2H-chromen-7-yl)-3,7-di(azetidin-1-yl)-5,5-dimethyl-3′-oxo-5H-spiro[dibenzo[b,e]siline-10,1′-isoindoline]-6′-carboxylate] the water solubility was “better water solubility”.
